Here are results for five compounds from patent publication US20250130239A1, “PROTEIN DEGRADER” (University of Dundee, priority 2021, published 2025).

pEC50: −log10 of the molar value. Read-outs that look alike come from different tables or passages of the source.

The subject of data set [1] is BRD2 in Bromotag-BRD2 CRISPR knock-in HEK293 cells. Nature of the data set: TMT labeling mass spectrometry proteomics, tagged target. The format is cell-based, human. The following applies: 1 μM, 2 h; >6,621 proteins quantified. The protocol: (§1) Sample processing, TMT labelling and fractionation. CRISPR modified BromoTag-Brd2 HEK293 cells were seeded 5×10^6 cells on a […] 24 h before treatment. Cells were treated with either DMSO, 1 μM AGB1 or 1 μM cis-AGB1. 2 h post-treatment, the cells were washed twice with PBS. Cells were lysed in 150 μL of 100 mM TEAB, 5% (w/v) SDS. The lysate was sonicated for 10 s and then centrifuged at 15,000 g for 5 min with the supernatant collected post-centrifugation. Samples were then quantified using a micro-BCA protein assay kit (Thermo Fisher Scientific); 300 μg of each sample were then reduced, alkylated and then digested using Strap mini protocol (Protifi) protocol as described by the manufacturer (protifi) with some modification. Samples were double digested with trypsin (1:40) first overnight then for another 6 hrs with the same ratio (1:40) in 50 mM TEAB buffer. Peptides were quantified using a quantitative fluorometric peptide assay (Thermo Fisher Scientific). The samples (90 μg each) were labelled with a TMT 10-plex Isobaric Label Reagent set (Thermo Fisher Scientific) as per the manufacturer's instructions. After labelling, samples were checked for labelling efficiency, then mixed, desalted, and dried in a speed-vac at 30° C. Samples were re-dissolved in 200 μl ammonium formate (10 mM, pH 9.5) and peptides were fractionated using High pH RP Chromatography. […]

The subject of data set [2] is BRD3, BRD4 or any other endogenous protein. Nature of the data set: TMT labeling mass spectrometry proteomics, off-targets. The format is cell-based, human. The following applies: 1 μM, 2 h; >6,621 proteins quantified. The protocol: as §1
Data set [3] concerns Brd2, Brd3 and Brd4. Nature of the data set: First generation screen at 1 μM, 6 h: BET protein levels (western blot). The data set is classed as cell-based, human. The protocol: Western Blotting. All cells were harvested on ice with RIPA lysis, and extraction buffer (ThermoFisher Scientific, 89901) supplemented with protease inhibitor cocktail (Merck, 11697498001) and Benzonase® Nuclease (Sigma, E1014) before being store at −20° C. prior to use. Total protein quantity was determined using the BCA protein assay (#23225, Pierce, Rockford, Illinois). Protein concentration was determined using the BCA assay (ThermoFisher Scientific, 23225). Samples were then prepared and loaded onto NuPAGE™ 4-12% Bis-Tris Midi gels (ThermoFisher Scientific, WG1403A), followed by the transfer of the proteins onto nitrocellulose membranes (EMD Millipore). […] All western blots were analysed for band intensities using Image Lab from Bio-Rad (LI-COR, Biosciences). The data extracted from these blots were then plotted and analysed using Prism (v. 8.2.0, GraphPad).
With this initial library in hand, we set out to evaluate the activity and selectivity of our I-BET-based B&H-PROTACs by treating our heterozygous BromoTag-Brd2 HEK293 cells with 1 μM of compounds 15-17 or 1 μM of control compounds MZP-15 (14), MZ1 (1) and cis-MZ1 for 6 h, which is sufficient time to achieve effective MZ1-induced BET protein degradation (FIG. 4A). Cells were harvested, and the subsequent lysate was analysed via western blot using antibodies against BET proteins; Brd2, Brd3 and Brd4 (FIG. 4A).
For orientation: In western blotting, separated proteins are transferred to a membrane and probed.

Data set [4] addresses wild-type Brd4^BD2 (Homo sapiens, UniProt O60885). The following applies: cited from earlier work.
For data set [5], the system named is MV-4-11 cells. Nature of the data set: CellTiter-Glo cell viability assay, MV-4-11. The data set is classed as cell-based, human. The conditions noted are these: 24 h. The protocol:
Cell Viability Assay. MV-4-11 cells were plated at a density of 2×10^4 cell per well of a 96 well white-bottom plate, and left to grow overnight in 50 μl of IMDM (Invitrogen, arlsebad, CA, USA) supplemented with 10% (v/v) Fetal bovine serum (FBS) (Thermo Fisher, Waltham, MA, USA) and 1% (v/v) penicillin/streptomycin (pen/strep) (#15140122, Thermo Fisher, Waltham, MA, USA) at 37° C., 5% CO2, and 95% humidity. […] These cells were then left to incubate at 37° C., 5% CO2, and 95% humidity for one day prior to undergoing spectrophotometric analysis. 22RV1 cells were plated at a density of 2×10^4 cell per well of a 96 well white-bottom plate, and left to grow overnight in 100 μL of RPMI-1640 (Invitrogen, Carlsebad, CA, USA) supplemented with 10% (v/v) fetal bovine serum (FBS) (Thermo Fisher, Waltham, MA, USA) and 1% (v/v) penicillin/streptomycin (pen/strep) (#15140122, Thermo Fisher, Waltham, MA, USA) at 37° C., 5% CO2, and 95% humidity. […] Plates were subjected to 2 mins on an orbital shaker to encourage lysis and left for a further 5 mins to reach peak luminescence. Luminescence was then recorded on a BMG Labtech PHERAstar luminescence plate reader with recommended settings. Data extracted from this analysis was analysed with Graphpad Prism (v. 8.2.0, GraphPad) and normalized to the DMSO vehicle control. […]
On the technique in general: ATP-based viability assays read luminescence as a measure of living cells.

The conditions of data set [6]: mice, values obtained from ref., cited from earlier work.

Take “(S)-13-((2S,4R)-4-hydroxy-2-((4-(4-methylthiazol-5-yl)benzyl)carbamoyl)pyrrolidine-1-carbonyl)-14,14-dimethyl-11-oxo-3,6,9-trioxa-12-azapentadecyl (R)-2-((S)-4-(4-chlorophenyl)-2,3,9-trimethyl-6H-thieno[3,2-f][1,2,4]triazolo[4,3-a][1,4]diazepin-6-yl)butanoate [AGB1 (46)]”: the “BRD2 protein abundance (proteomics)” value in data set [1] is reported as “most significantly degraded”. The “depletion of BRD3, BRD4 or any other endogenous protein (proteomics)” value in data set [2] is reported as “no detectable depletion”.

As to `CC[C@@H](C(=O)OCCOCCOCCOCC(=O)N[C@H](C(=O)N1C[C@@H](O)C[C@H]1C(=O)NCc1ccc(-c2scnc2C)cc1)C(C)(C)C)[C@@H]1N=C(c2ccc(Cl)cc2)c2c(sc(C)c2C)-n2c(C)nnc21` [cis-AGB1, (S)-13-((2S,4S)-4-hydroxy-2-((4-(4-methylthiazol-5-yl)benzyl)carbamoyl)pyrrolidine-1-carbonyl)-14,14-dimethyl-11-oxo-3,6,9-trioxa-12-azapentadecyl (R)-2-((S)-4-(4-chlorophenyl)-2,3,9-trimethyl-6H-thieno[3,2-f][1,2,4]triazolo[4,3-a][1,4]diazepin-6-yl)butanoate], the “BRD2 protein abundance (proteomics)” value in data set [1] is recorded as “No significant changes”.

`COc1ccc2c(c1)C(c1ccc(Cl)cc1)=NC(CC(=O)NCCOCCOCCOCC(=O)N[C@H](C(=O)N1C[C@H](O)C[C@H]1C(=O)NCc1ccc(-c3scnc3C)cc1)C(C)(C)C)c1nnc(C)n1-2` (stereo partly drawn) [MZP-15 (14), (2S,4R)-1-((2S)-2-(tert-butyl)-17-(6-(4-chlorophenyl)-8-methoxy-1-methyl-4H-benzo[fj][1,2,4]triazolo[4,3-a][1,4]diazepin-4-yl)-4,16-dioxo-6,9,12-trioxa-3,15-diazaheptadecanoyl)-4-hydroxy-N-(4-(4-methylthiazol-5-yl)benzyl)pyrrolidine-2-carboxamide]: the “activity across all three BET family members relative to 1” value in data set [3] is recorded as “significant lower activity”.

`CC[C@@H](C(=O)OC)[C@@H]1N=C(c2ccc(Cl)cc2)c2c(sc(C)c2C)-n2c(C)nnc21` [ET-JQ1-OMe]: the “binding to the wild-type domain” value in data set [4] was “undetectable binding”.

By pEC50 is commonly meant −log10 of the EC50, conventionally taken in molar units. A low value points to a high EC50. In general, Vss refers to a proportionality between amount in the body and measured concentration, not a real space. With `Cc1ncsc1-c1ccc(CNC(=O)[C@@H]2C[C@@H](O)CN2C(=O)[C@@H](NC(=O)COCCOCCOCCNC(=O)C[C@@H]2N=C(c3ccc(Cl)cc3)c3c(sc(C)c3C)-n3c(C)nnc32)C(C)(C)C)cc1` [MZ1 (1)], in data set [5], the pEC50 was about 7.70. Also, the “T1/2” value in data set [6] (IV (5 mg/kg), 5 mg/kg) is given as 1.04 h. Besides, in data set [6] (IV (5 mg/kg)), the “AUCinf” value is 4.51 µM·h, the “CL” value is 19.7 mL/min/kg, the “MRTinf” value is reported as 0.340 h and the distribution volume (Vss) is 0.38 L/kg. Moreover, the “T1/2” value in data set [6] (IV (5 mg/kg), listed as 1, 5 mg/kg) is on record as 1.05 h. For the same compound, in data set [6] (SC (5 mg/kg)), the “AUCinf” value was 3.76 µM·h, the “F (%)” value is given as 83% and the “T1/2” value is listed as 2.95 h.
